# Experimental data reported in patent US20120022116A1, “COMPOSITIONS AND METHODS FOR THE TREATMENT OF PATHOLOGICAL CONDITION(S) RELATED TO GPR35 AND/OR GPR35-HERG COMPLEX” (priority 2010, published 2012).
# Entries after “also recorded” stand apart in the source; their conditions may differ. Read-outs that look alike come from different tables or passages of the source.
# Legend:
# [1] = tested on: GPR35; experiment: DMR desensitization / antagonism mode against GPR35 agonist-induced DMR in HT29 cells; type: cell-based, human
# [2] = biological target: hERG channel (Homo sapiens, UniProt Q12809); experiment: Automated patch clamp recording of hERG tail current (IonWorks); conditions: hERG tail current ratio post/pre-compound, 50 uM
# [3] = biological target: T1, GPR35 (Homo sapiens, UniProt Q9HC97); experiment: Ca2+ mobilization assay (Fluo-4) in HEK-GPR35-Gqo5 cells; type: cell-based; conditions: for Ca2+ moblization (HEK-GPR35-Gqo5): HEK293 cells co-expressing GPR35 and Gqo5, Fluo-4, compounds 10 μM
# T1 construct: myc; expressed in transfected cells; host or cells: HEK293, transient co-transfection (Lipofectamine LTX)
# [4] = HT29 cells pretreated with compound, then GPR35 agonist
# [5] = HT29, zaprinast 400 nM, U73122, cytochalasin D, Y27632 10 micromolar, CTX 1 microgram/ml, PTX 100 nanogram/ml
# hERG channel, sequence (Q12809 whole entry): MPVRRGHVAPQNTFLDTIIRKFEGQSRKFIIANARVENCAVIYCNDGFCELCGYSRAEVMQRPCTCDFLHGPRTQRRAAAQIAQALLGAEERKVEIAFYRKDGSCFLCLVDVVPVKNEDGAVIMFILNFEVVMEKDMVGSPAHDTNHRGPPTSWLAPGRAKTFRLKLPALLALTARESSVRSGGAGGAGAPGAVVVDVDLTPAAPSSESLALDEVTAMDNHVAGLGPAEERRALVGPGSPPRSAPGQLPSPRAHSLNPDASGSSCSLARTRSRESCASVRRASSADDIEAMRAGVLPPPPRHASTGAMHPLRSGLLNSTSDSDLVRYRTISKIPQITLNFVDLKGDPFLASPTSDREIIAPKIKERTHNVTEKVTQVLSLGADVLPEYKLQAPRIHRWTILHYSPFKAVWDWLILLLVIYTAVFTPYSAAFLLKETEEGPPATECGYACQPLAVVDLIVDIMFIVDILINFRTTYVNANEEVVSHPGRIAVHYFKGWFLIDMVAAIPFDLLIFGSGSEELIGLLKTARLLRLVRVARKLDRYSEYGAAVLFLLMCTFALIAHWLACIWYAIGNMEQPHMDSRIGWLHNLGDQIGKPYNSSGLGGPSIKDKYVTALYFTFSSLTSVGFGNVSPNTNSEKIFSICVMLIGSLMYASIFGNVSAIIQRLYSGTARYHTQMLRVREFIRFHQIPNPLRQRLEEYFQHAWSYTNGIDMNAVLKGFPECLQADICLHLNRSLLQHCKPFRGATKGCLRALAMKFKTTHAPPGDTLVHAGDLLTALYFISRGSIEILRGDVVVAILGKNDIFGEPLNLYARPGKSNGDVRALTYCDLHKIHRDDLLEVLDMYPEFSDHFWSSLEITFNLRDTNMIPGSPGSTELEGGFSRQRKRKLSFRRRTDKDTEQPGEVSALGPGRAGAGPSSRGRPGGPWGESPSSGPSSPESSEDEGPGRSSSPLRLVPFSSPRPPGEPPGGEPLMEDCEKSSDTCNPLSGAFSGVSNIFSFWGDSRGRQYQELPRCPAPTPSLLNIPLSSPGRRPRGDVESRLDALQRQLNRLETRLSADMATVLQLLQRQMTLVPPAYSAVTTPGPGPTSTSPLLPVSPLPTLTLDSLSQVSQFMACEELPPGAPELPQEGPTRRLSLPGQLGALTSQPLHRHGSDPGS
# T1 sequence (Q9HC97 whole entry): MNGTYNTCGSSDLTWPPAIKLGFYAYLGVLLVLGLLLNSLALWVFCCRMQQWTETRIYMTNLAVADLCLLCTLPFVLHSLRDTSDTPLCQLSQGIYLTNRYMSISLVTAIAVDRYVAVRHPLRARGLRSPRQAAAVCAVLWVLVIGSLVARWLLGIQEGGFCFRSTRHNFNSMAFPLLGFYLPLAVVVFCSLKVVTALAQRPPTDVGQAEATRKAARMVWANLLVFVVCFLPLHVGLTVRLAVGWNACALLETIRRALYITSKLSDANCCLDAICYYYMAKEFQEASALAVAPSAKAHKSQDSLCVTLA
# GPR35, sequence (Q9HC97 whole entry): as above
Compound,"Desenstization to GPR35 agonist [1, 4]",Electrophysiology (HEK-hERG) [2],Ca2+ moblization (HEK-GPR35-Gqo5) [3],other results
N#CC(C#N)=C(N)/C(C#N)=C/c1ccc(O)cc1 [AG112],desenstized,–,–,–
N#CC(C#N)=Cc1ccc([N+](=O)[O-])c(O)c1 [AG126],desenstized,inactive,–,–
N#CC(=Cc1ccc2[nH]ccc2c1)C(N)=C(C#N)C#N [AG370],desenstized,inactive,–,–
N#C/C(=C/c1ccc(O)c(O)c1)C(=O)NCc1ccccc1 [AG490],desenstized,–,–,–
COc1cc(/C=C(\C#N)C(N)=O)cc(CSc2nc3ccccc3s2)c1O [AG825],desenstized,–,–,–
CC(C)(C)c1cc(C=C(C#N)C#N)cc(Br)c1O [AG1024],desenstized,–,–,–
N#CC(C#N)=Cc1cc(O)c(O)c([N+](=O)[O-])c1 [AG1288],desenstized,–,–,–
"CCCCc1ccc(C2(C)OC(=C(C#N)C#N)C(C#N)=C2C)cc1 (stereo not drawn) [Compound 01, 2-dicyanomethylene-3-cyano-4,5-dimethyl-5-[4′-n-butylphenyl]-2,5-dihydrofuran]",desenstized,inactive,inactive,–
"CC1=C(C#N)C(=C(C#N)C#N)OC1(C)c1ccc(F)cc1F (stereo not drawn) [Compound 02, 2-dicyanomethylene-3-cyano-4,5-dimethyl-5-[2′,4′-difluorophenyl]-2,5-dihydrofuran]",desenstized,inactive,active,–
"CC1=C(C#N)C(=C(C#N)C#N)OC12CCCCC2 [Compound 03, 2-dicyanomethylene-3-cyano-4-methyl-5-spiro-cyclohexyl-2,5-dihydrofuran]",desenstized,inactive,inactive,–
"CC1=C(C#N)C(=C(C#N)C#N)OC1(c1ccccc1)C(F)(F)F (stereo not drawn) [Compound 04, 2-dicyanomethylene-3-cyano-4-methyl-5-phenyl-5-perfluoromethyl-2,5-dihydrofuran]",desenstized,activator,active,–
"CC1=C(C#N)C(=C(C#N)C#N)OC12c1ccccc1-c1ccccc12 [Compound 05, 2-dicyanomethylene-3-cyano-4-methyl-5-spiro-fluorenylidine-2,5-dihydrofuran]",desenstized,inactive,inactive,–
"CC1=C(C#N)C(=C(C#N)C#N)OC1(C)c1ccc(Cl)c(Cl)c1Cl (stereo not drawn) [Compound 06, 2-dicyanomethylene-3-cyano-4,5-dimethyl-5-[2′,3′,4′-trichlorophenyl]-2,5-dihydrofuran]",desenstized,inactive,inactive,–
"CC1=C(C#N)C(=C(C#N)C#N)OC1(C)c1ccc(Cl)c(Cl)c1 (stereo not drawn) [Compound 07, 2-dicyanomethylene-3-cyano-4,5-dimethyl-5-[3′,4′-dichlorophenyl]-2,5-dihydrofuran]",desenstized,inactive,active,–
"CC1=C(C#N)C(=C(C#N)C(N)=C(C#N)C#N)OC1(C)C [Compound 08, 2-cyano-2-(1-amino-2,2-dicyanovinyl)methylene-3-cyano-4,5,5-trimethyl-2,5-dihydrofuran]",desenstized,inactive,active,–
"CC1=C(C#N)C(=C(C#N)C#N)OC1(C)c1c(F)c(F)c(F)c(F)c1F (stereo not drawn) [Compound 09, 2-dicyanomethylene-3-cyano-4,5-dimethyl-5-[2′3′4′5′6′-pentafluorophenyl]-2,5-dihydrofuran]",desenstized,inactive,active,–
"CC1=C(C#N)C(=C(C#N)C#N)OC1(C)C [Compound 10, 2-dicyanomethylene-3-cyano-4,5,5-trimethyl-2,5-dihydrofuran]",desenstized,inactive,active,–
"O=C(O)c1cc2sccc2s1 [Compound 11, thieno[3,2-b]thiophene-2-carboxylic acid]",desenstized,inactive,inactive,–
"Cc1c(C(=O)O)sc2ccsc12 [Compound 12, 3-methyl-thieno[3,2-b]thiophene-2-carboxylic acid]",desenstized,inactive,active,–

Compound,"Desenstization to GPR35 agonist [1, 4]",Electrophysiology (HEK-hERG) [2],Ca2+ moblization (HEK-GPR35-Gqo5) [3],other results
"CCCCCCc1csc2cc(C(=O)O)sc12 [Compound 14, 6-hexyl-thieno[3,2-b]thiophene-2-carboxylic acid]",desenstized,blocker,active,–
"CCCCCCCCCCC(=O)c1sc2c(Br)csc2c1Br [Compound 15, 3,6-dibromo-thieno[3,2-b]thiophene-2-undecanone]",–,inactive,–,–
"CCCCCCCCCCCc1c(C(=O)O)sc2c(Br)csc12 [Compound 16, 3-n-undecyl-6-bromo-thieno[3,2-b]thiophene-2-carboxylic acid]",–,inactive,–,Desenstization to GPR35 agonist [1]: desenstized
"CCCCCCCCCCCCCc1c(C(=O)O)sc2c(Br)csc12 [Compound 17, 3-n-tridecyl-6-bromo-thieno[3,2-b]thiophene-2-carboxylic acid]",–,activator,–,Desenstization to GPR35 agonist [1]: desenstized
"CCCCCCCCCCc1c(C(=O)O)sc2c(Br)csc12 [Compound 18, 3-n-decyl-6-bromo-thieno[3,2-b]thiophene-2-carboxylic acid]",desenstized,activator,–,–
"CCCCCCCCCCCCCCCc1c(C(=O)O)sc2c(Br)csc12 [Compound 19, 3-n-pentadecyl-6-bromo-thieno[3,2-b]thiophene-2-carboxylic acid]",desenstized,activator,–,–
"COc1ccc2c(c1)CC[C@@H]1[C@@H]2CC[C@]2(C)[C@@H](NCCCCCCN3C(=O)C=CC3=O)CC[C@@H]12 [Compound U73122, U73122]",–,–,–,"effect of pathway agent pretreatment on the zaprinast DMR signal [1, 5]: insensitive; effect of pathway agent on the 6-bromo-3-methylthieno[3,2-b]thiophene-2-carboxylic acid DMR ([1]; HT29 cells): insensitive"
"C[C@@H](N)[C@H]1CC[C@H](C(=O)Nc2ccncc2)CC1 [Compound Y27632, Y27632]",–,–,–,"effect of pathway agent pretreatment on the zaprinast DMR signal [1, 5]: partially attenuated; effect of pathway agent on the 6-bromo-3-methylthieno[3,2-b]thiophene-2-carboxylic acid DMR ([1]; HT29 cells): partially attenuated"
O=C(O)Cc1ccccc1Nc1c(Cl)cccc1Cl [Diclofenac],desenstized,–,inactive,–
CCN(CC)C(=O)/C(C#N)=C/c1cc(O)c(O)c([N+](=O)[O-])c1 [Entacapone],–,inactive,–,–
NS(=O)(=O)c1cc(C(=O)O)c(NCc2ccco2)cc1Cl [Furosemdie],desenstized,–,active,"Ca2+ mobilization signal in cells co-expressing GPR35 and Gqo5 ([3]; engineered HEK293, 10 μM): active"
O=C(O)c1ccccc1Nc1ccccc1 [N-phenylanthranilic],desenstized,–,–,–
CCNc1nc(C)nc2c1cnn2-c1ccc(C)cc1 [NSC1619],inactive,activator,–,–
O=C(O)c1ccccc1Nc1ccc(CCc2ccc(Cl)c(Cl)c2)cc1 [PD-118057],desenstized,activator,–,–
N#CC(C#N)=Cc1ccc(O)c(O)c1 [Tyrphostin 23],desenstized,–,–,–
N#CC(C#N)=Cc1cc(O)c(O)c(O)c1 [Tyrphostin 25],desenstized,inactive,–,–
C=C1[C@@H](C)[C@H]2[C@H](Cc3ccccc3)NC(=O)[C@]23[C@H](OC(C)=O)/C=C/[C@@](C)(O)C(=O)[C@@H](C)C/C=C/[C@H]3[C@@H]1O [cytochalasin D],–,–,–,"effect of pathway agent pretreatment on the zaprinast DMR signal [1, 5]: completely attenuated; also recorded: completely block; effect of pathway agent on the 6-bromo-3-methylthieno[3,2-b]thiophene-2-carboxylic acid DMR ([1]; HT29 cells): blocked"
Pertussis toxin,–,–,–,"effect of pathway agent pretreatment on the zaprinast DMR signal [1, 5]: insensitive; effect of pathway agent on the 6-bromo-3-methylthieno[3,2-b]thiophene-2-carboxylic acid DMR ([1]; HT29 cells): insensitive"
cholera toxin,–,–,–,"effect of pathway agent on the 6-bromo-3-methylthieno[3,2-b]thiophene-2-carboxylic acid DMR [1]: insensitive; effect of pathway agent pretreatment on the zaprinast DMR signal [1]: insensitive"
